“Also recorded” adds a separate entry of the source.
Assays:
[1] = system: human lung cancer cell line A549, cervical cancer cell line Hela, colorectal cancer cell line HT-29; assay: Cancer cell line growth inhibition test (WST-8 cell viability, 72 h); type: cell-based; conditions: for Cancer Cell line growth inhibition test: relative evaluation compared to doxorubicin
Procedure: A human lung cancer cell line A549, a cervical cancer cell line Hela, and a colorectal cancer cell line HT-29 were adopted from the Korea Cell Line Bank (KCLB, Seoul, Korea) and cultured in a culture medium.
In a humidified cell culture incubator containing 5% CO2; at 37° C. using a DMEM and a 10% culture flask, fetal bovine serum (FBS), 0.1 mM MEM non-essential amino acid (NEAA), 2 mM L-glutamine, and 1% penicillin-streptomycin were trypsinized every 2 to 3 days according to the instructions provided by the KCLB to subculture the cells. The culture was cultured until reached 80% to 90% of confluence, and the cells were successively transferred to a culture flask for a cancer cell line growth inhibition test.
A cancer cell line, a human lung cancer cell line A549, a cervical cancer cell line Hela, and a colorectal cancer cell line HT-29 to be tested were seeded in a 96-well plate at about 10,000 cells per well.
After incubation, the medium was removed and the cell viability in each well was measured using a WST-8 cell viability assay kit (Quanti-Max™, BIOMAX) and according to a procedure instructed by a manufacturer.
The analysis used a principle that dehydrogenase of living cells decomposed tetrazolium salt to generate formazan, and through this, the living cells were quantitatively evaluated.
Reduced formazan salt was soluble in a cell culture medium and an amount of formazan was directly proportional to the number of living cells (Slater, T. et al. (1963) Biochem. Biophys. Acta 77:383. van de Loosdrecht, A. A., et al. J. Immunol. Methods 174: 311-320, 1994. Alley, M. C., et al. Cancer Res. 48: 589-601, 1988.).

[2] = system: normal lung cell line MRC-5 and normal colon CCD-18Co cell line; assay: Toxicity test in normal cell line (WST-8 cell viability, 72 h); type: cell-based; conditions: for Normal cell line toxicity test: relative evaluation compared to doxorubicin

Row | Substance | Cancer Cell line growth inhibition test [1] | cancer cell line growth inhibition efficiency ([1]; FIG. 1, A549, Hela, HT-29, 0-100 μM, 72 hours, versus albendazole, fenbendazole, doxorubicin) | toxicity to the normal cell lines ([2]; FIG. 2, MRC-5, CCD-18Co, 0-100 μM, 72 hours, compared to albendazole, fenbendazole, and doxorubicin) | Normal cell line toxicity test [2]
1 | Fenbendazole-1,2,3,4-Tetra-β-D-glucose [FB-1] | AA (AA represents equal (1 to 2 times)) |  |  | 
2 | albendazole-1,2,3,4-Tetra-β-D-glucose [AL-1] | AA (AA represents equal (1 to 2 times)) | most excellent; also recorded: very excellent | very weak | AA (AA represents little toxicity ( 1/10 times))
3 | albendazole-1,2,3,4-Tetra-β-D-fructose [AL-2] | AA (AA represents equal (1 to 2 times)) |  |  | AA (AA represents little toxicity ( 1/10 times))
4 | Fenbendazole-1,2,3,4-Tetra-β-D-fructose [FB-2] | AA (AA represents equal (1 to 2 times)) |  |  | 

From patent publication US11667661B2, “Benzimidazole derivatives, preparation method thereof and use thereof as anti-cancer agent comprising the same” (BIOMETRIX TECHNOLOGY INC, priority 2020, dated 2023)
